# Data: ChEMBL document CHEMBL1139788, “Potent, nonsteroidal selective androgen receptor modulators (SARMs) based on 8H-[1,4]oxazino[2,3-f]quinolin-8-ones” (Bioorg Med Chem Lett, 2007)
# The source made the active and inactive calls. The rule behind the calls is not given here.
# Key:
# [1] = molecular target: T1, Androgen receptor (Homo sapiens, UniProt P10275)
# T1 sequence (P10275 whole entry): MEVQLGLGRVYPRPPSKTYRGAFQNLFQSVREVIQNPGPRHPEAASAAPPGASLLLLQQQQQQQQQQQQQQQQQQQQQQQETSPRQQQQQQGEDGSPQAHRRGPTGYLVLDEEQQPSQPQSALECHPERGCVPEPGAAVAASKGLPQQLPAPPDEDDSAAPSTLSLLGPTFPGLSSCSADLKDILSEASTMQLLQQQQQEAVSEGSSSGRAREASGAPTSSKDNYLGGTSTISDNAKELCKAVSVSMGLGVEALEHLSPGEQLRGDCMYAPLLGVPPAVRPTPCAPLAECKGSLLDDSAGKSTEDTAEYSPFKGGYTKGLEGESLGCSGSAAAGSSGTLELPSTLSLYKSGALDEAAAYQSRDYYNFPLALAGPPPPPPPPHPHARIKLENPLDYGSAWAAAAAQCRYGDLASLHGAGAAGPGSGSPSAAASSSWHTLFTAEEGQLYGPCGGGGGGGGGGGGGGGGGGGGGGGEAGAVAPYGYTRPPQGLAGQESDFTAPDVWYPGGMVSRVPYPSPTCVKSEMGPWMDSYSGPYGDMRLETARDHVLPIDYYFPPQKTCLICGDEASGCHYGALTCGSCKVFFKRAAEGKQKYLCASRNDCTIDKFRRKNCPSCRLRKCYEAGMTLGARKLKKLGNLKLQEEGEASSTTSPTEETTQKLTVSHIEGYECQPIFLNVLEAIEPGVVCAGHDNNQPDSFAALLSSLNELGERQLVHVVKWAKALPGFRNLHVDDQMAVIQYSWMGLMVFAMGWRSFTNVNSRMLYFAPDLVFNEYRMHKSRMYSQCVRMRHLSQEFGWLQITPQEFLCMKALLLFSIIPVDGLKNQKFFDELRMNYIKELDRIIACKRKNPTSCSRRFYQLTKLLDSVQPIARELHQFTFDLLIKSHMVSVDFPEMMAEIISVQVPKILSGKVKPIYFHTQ
# Description: Agonist activity at human androgen receptor expressed in CV1 cells by transcriptional activation assay
# [2] = molecular target: T1, Androgen receptor; remark: listed apart in the source
# Description: Antagonist activity at human androgen receptor expressed in CV1 cells by transcriptional activation assay
# [3] = molecular target: T2, Progesterone receptor (Homo sapiens) (UniProt P06401); experiment: Agonist activity at progesterone receptor by transactivation assay; assay type: functional
# T2 sequence (whole entry): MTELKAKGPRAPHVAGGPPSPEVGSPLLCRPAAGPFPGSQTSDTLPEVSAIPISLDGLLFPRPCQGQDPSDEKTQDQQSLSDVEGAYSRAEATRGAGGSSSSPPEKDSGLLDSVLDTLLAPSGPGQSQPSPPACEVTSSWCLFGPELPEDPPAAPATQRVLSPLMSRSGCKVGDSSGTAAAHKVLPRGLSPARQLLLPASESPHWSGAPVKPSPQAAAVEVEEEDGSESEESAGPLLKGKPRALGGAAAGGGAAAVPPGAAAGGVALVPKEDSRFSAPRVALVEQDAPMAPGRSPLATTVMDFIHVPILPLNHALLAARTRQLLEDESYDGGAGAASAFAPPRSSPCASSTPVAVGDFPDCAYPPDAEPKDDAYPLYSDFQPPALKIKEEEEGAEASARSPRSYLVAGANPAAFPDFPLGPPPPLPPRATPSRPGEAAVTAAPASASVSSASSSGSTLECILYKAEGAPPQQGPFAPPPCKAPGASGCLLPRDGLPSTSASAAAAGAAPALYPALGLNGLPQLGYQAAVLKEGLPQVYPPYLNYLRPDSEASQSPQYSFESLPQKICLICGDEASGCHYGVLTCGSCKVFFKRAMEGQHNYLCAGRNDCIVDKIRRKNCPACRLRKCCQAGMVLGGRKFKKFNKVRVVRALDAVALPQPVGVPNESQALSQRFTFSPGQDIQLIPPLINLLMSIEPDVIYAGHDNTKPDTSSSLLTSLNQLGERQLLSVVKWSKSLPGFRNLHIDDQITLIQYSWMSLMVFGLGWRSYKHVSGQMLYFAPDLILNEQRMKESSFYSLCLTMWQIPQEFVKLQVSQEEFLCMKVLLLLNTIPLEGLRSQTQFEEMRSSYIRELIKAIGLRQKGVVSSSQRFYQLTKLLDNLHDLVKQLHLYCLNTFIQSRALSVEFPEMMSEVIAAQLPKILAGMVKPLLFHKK
# [4] = molecular target: T3, Mineralocorticoid receptor (Homo sapiens) (UniProt P08235); experiment: Agonist activity at mineralocorticoid receptor by transactivation assay; assay type: functional
# T3 sequence (whole entry): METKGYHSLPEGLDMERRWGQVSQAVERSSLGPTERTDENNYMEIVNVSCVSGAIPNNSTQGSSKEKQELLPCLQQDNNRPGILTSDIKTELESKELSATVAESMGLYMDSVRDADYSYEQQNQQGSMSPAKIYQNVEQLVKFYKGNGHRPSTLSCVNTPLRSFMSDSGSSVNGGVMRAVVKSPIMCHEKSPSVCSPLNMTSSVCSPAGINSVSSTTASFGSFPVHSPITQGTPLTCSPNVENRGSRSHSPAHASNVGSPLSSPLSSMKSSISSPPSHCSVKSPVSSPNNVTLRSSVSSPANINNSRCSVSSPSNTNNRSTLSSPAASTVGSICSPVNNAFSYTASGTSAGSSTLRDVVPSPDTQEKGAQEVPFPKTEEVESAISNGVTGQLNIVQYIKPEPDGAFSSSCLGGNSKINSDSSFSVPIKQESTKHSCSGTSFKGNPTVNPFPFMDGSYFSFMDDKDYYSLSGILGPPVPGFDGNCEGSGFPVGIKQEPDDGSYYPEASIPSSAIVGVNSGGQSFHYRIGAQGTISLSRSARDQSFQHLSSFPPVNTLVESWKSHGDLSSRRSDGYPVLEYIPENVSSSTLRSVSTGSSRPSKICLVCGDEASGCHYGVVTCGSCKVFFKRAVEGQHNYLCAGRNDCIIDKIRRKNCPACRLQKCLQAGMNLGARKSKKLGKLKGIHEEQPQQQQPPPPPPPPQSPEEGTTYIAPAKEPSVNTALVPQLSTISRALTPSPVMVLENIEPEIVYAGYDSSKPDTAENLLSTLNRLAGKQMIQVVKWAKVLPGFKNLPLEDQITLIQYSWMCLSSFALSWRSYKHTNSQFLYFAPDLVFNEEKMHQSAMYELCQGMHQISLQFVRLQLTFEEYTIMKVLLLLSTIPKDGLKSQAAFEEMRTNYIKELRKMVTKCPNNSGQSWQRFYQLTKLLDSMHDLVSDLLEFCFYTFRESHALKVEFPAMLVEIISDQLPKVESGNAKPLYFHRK
# [5] = molecular target: T4, Glucocorticoid receptor (Homo sapiens) (UniProt P04150); experiment: Agonist activity at glucocorticoid receptor by transactivation assay; assay type: functional
# T4 sequence (whole entry): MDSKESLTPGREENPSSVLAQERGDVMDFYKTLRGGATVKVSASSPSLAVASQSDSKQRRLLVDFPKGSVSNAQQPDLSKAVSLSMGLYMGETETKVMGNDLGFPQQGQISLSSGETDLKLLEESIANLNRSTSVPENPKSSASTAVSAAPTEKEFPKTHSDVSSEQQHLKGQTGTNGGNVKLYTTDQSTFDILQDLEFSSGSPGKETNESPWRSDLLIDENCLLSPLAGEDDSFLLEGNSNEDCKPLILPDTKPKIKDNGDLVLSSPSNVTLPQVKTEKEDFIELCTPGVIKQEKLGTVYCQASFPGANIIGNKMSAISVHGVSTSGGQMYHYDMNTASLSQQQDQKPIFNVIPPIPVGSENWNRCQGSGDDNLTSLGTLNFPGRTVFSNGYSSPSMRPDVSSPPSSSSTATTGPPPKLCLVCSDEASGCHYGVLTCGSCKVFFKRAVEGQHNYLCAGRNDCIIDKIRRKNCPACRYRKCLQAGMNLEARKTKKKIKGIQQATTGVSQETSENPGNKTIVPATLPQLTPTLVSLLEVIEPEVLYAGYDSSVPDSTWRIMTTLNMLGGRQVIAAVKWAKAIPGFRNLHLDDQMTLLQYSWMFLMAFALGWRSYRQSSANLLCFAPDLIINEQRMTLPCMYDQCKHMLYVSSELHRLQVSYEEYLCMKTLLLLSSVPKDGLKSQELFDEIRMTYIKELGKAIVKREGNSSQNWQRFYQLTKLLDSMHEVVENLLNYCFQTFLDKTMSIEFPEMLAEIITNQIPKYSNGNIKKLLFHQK
# [6] = molecular target: T3, Mineralocorticoid receptor (Homo sapiens); experiment: Antagonist activity at mineralocorticoid receptor by transactivation assay; assay type: functional
# [7] = molecular target: T4, Glucocorticoid receptor (Homo sapiens); experiment: (§1) Antagonist activity at glucocorticoid receptor by transactivation assay; assay type: functional
# [8] = molecular target: T5, Glucocorticoid receptor (Homo sapiens, UniProt P04150); experiment: as §1; assay type: functional
# T5 sequence (P04150 whole entry): T4 sequence (whole entry)
# [9] = molecular target: T2, Progesterone receptor (Homo sapiens); experiment: Antagonist activity at progesterone receptor by transactivation assay; assay type: functional
# [10] = system: Rattus norvegicus; experiment: Effect on levator ani muscle weight maintenance in 2-week castrated mature rat model at 10 mg/kg; assay type: functional, organism-based; set-up: dose 10 mg/kg
# [11] = system: Rattus norvegicus; experiment: Reduced activity on ventral prostate weight in 2-week castrated mature rat model at 100 mg/kg; assay type: functional, organism-based; set-up: dose 100 mg/kg; settings: Prostate gland
SMILES,EC50 [1] [nM],IC50 [2] [nM],also measured
C[C@@H]1COc2c(ccc3[nH]c(=O)cc(C(F)(F)F)c23)N1C,> 10000,,
CC(C)[C@@H]1COc2c(ccc3[nH]c(=O)cc(C(F)(F)F)c23)N1C,276,,
O=c1cc(C(F)(F)F)c2c3c(ccc2[nH]1)N(CC1CC1)[C@@H](c1ccccc1)CO3,18,> 10000,
CCCN1c2ccc3[nH]c(=O)cc(C(F)(F)F)c3c2OC[C@H]1CC,394,> 10000,
CC[C@@H]1COc2c(ccc3[nH]c(=O)cc(C(F)(F)F)c23)N1CC,,> 10000,
C=CCN1c2ccc3[nH]c(=O)cc(C(F)(F)F)c3c2OC[C@H]1C(C)C,,> 10000,
CCN1c2ccc3[nH]c(=O)cc(C(F)(F)F)c3c2OC[C@H]1C(C)C,,> 10000,
O=c1cc(C(F)(F)F)c2c3c(ccc2[nH]1)NCCO3,> 10000,1500,
CCCN1c2ccc3[nH]c(=O)cc(C(F)(F)F)c3c2OC[C@H]1C,406,,
O=c1cc(C(F)(F)F)c2c3c(ccc2[nH]1)N(CC(F)(F)F)CCO3,190,,
C[C@@H]1COc2c(ccc3[nH]c(=O)cc(C(F)(F)F)c23)N1CC(F)(F)F,5.4,> 10000,Activity [3]: inactive; Activity [4]: inactive; Activity [5]: inactive; Activity [6]: inactive; Efficacy [7]: 53%; IC50 [8]: 3200 nM; Efficacy [9]: 40%
CC[C@@H]1COc2c(ccc3[nH]c(=O)cc(C(F)(F)F)c23)N1CC(C)C,227,> 10000,
O=c1cc(C(F)(F)F)c2c3c(ccc2[nH]1)N(CC1CC1)C(c1ccccc1)CO3 (stereo not given),3.5,> 10000,
CCN1c2ccc3[nH]c(=O)cc(C(F)(F)F)c3c2OC[C@H]1C,420,,
CC[C@@H]1COc2c(ccc3[nH]c(=O)cc(C(F)(F)F)c23)N1C,> 10000,,
CC[C@@H]1COc2c(ccc3[nH]c(=O)cc(C(F)(F)F)c23)N1CC(F)(F)F,1,> 10000,Activity [3]: inactive; Activity [4]: inactive; Activity [10]: Active; Activity [5]: inactive; Activity [6]: inactive; Efficacy [7]: 98%; Efficacy [9]: 94%; Activity [11]: Active
O=c1cc(C(F)(F)F)c2c3c(ccc2[nH]1)N(CC1CC1)[C@H](c1ccccc1)CO3,> 10000,45,
CC[C@@H]1COc2c(ccc3[nH]c(=O)cc(C(F)(F)F)c23)N1CC(C)(C)O,300,> 10000,
O=c1cc(C(F)(F)F)c2c3c(ccc2[nH]1)N[C@H](c1ccccc1)CO3,> 10000,1480,
CC(C)[C@@H]1COc2c(ccc3[nH]c(=O)cc(C(F)(F)F)c23)N1CC(F)(F)F,20,> 10000,
CC[C@@H]1COc2c(ccc3[nH]c(=O)cc(C(F)(F)F)c23)N1,> 10000,84,Activity [3]: inactive; Activity [4]: inactive; Activity [5]: inactive; Activity [6]: inactive; Efficacy [9]: 42%
C=CCN1c2ccc3[nH]c(=O)cc(C(F)(F)F)c3c2OC[C@H]1CC,51,> 10000,
O=c1cc(C(F)(F)F)c2c3c(ccc2[nH]1)N(CC(F)(F)F)[C@H](Cc1ccccc1)CO3,43,> 10000,
CC(C)C[C@@H]1COc2c(ccc3[nH]c(=O)cc(C(F)(F)F)c23)N1CC(F)(F)F,98,,
CCC[C@@H]1COc2c(ccc3[nH]c(=O)cc(C(F)(F)F)c23)N1,> 10000,113,
